Data: patent US8445510B2, “Fused bicyclic kinase inhibitors” (OSI Pharmaceuticals, LLC, priority 2011, dated 2013)
pIC50: −log10 of the molar value.

What was measured:
[1] = system: MKN45 cells; assay: MKN45 cell proliferation assay (CellTiter-Glo); format: cell-based; conditions: Homo sapiens, MKN-45, 72 h; MKN45 cell line; 3 days incubation; at least duplicate experiments; read-out: Prolif. IC50
[2] = target: T1, Aurora B (Homo sapiens, UniProt Q96GD4); assay: Aurora B cell mechanistic assay (HT-29), phospho-Histone H3 (Ser10) ELISA; format: cell-based; conditions: HT-29 cell line; inhibition of phospho-Histone H3 (Ser10); at least duplicate experiments (italicized if single experiment); read-out: Aurora B mech IC50
T1 construct: HT-29 cells grown in complete growth media
Protocol: The cellular activity of the compounds of the present invention against Aurora B may be determined by the following procedure. HT-29 cells grown in complete growth media (McCoy's 5A, 10% FCS, 1% L-glutamine) were plated into wells of a 96 well tissue culture plate (Falcon 3072) at a cell density of 4×10^4 cells/0.09 ml media/well. Cells were subsequently incubated overnight in a 5% CO2 humidified 37° C. incubator. The following day 10 μl of a 10× stock of test compound serially diluted in media was added to the cells and incubated for 1 h at 37° C. at which time Calyculin A (Cell Signaling #9902) was added at a concentration of 100 nM and cells incubated for an additional 30 minutes in a 5% CO2 humidified 37° C. incubator. Media was then aspirated and cells lysed using a Triton based lysis buffer. Lysates were transferred to a pre-coated anti-Histone H3 antibody coated plate supplied by Cell Signaling in their PathScan phospho-Histone H3 (Ser10) ELISA kit (#7155). After an overnight incubation with lysate the ELISA was continued following the manufacturer's instructions. Signal was measured on a Wallac Victor plate reader at 450 nm. DMSO control treated cells served as 100% signal and an Aurora B kinase inhibitor served as 100% inhibition. The percent inhibition of phospho-Histone H3 (Ser10) was expressed as % control. IC50 values were calculated from the percent control data using a standard four-parameter model.
The IC50 values of exemplary compounds of the present invention determined in a Aurora B cell mechanistic assay using the HT-29 cell line according to the procedures described herein in at least duplicate experiments are abbreviated as follows and are shown in Table 4: A, IC50≦0.05 μM; B, 0.05 μM<IC50≦0.2 μM; C, 0.2 μM<IC50≦1 μM; D, IC50>1 μM; ND, not determined. If only data from single experiments are available, the abbreviations are italicized. The Example # of Table 4 corresponds to the compound example number as illustrated in the Examples section.

T1 sequence (Q96GD4 whole entry): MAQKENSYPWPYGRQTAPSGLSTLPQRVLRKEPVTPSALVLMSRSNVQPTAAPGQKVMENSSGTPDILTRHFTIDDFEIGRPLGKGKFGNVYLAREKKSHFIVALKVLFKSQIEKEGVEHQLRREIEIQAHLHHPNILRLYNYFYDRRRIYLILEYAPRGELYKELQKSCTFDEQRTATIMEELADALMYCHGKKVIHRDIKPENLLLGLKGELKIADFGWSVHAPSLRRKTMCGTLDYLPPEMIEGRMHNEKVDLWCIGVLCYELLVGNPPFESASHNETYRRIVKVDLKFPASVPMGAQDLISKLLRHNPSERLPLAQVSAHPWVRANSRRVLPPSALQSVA

Row | Structure (SMILES) | pIC50 [1] | pIC50 [2]
1 | Cc1nn(C[C@@H](O)CO)c(C)c1-c1cnc2[nH]cc([C@H](C)c3c(OC(F)F)ccc(F)c3Cl)c2c1 [Example 69, (2R)-3-[4-(3-{(1S)-1-[2-Chloro-6-(difluoromethoxy)-3-fluorophenyl]ethyl}-1H-pyrrolo[2,3-b]pyridin-5-yl)-3,5-dimethyl-1H-pyrazol-1-yl]propane-1,2-diol] | ≥ 7.30 | < 6.00
2 | Cc1nn(C[C@@H](O)CO)c(C)c1-c1cnc2[nH]cc([C@H](C)c3c(Cl)ccc(F)c3Cl)c2c1 [Example 66, (2R)-3-(4-{3-[(1S)-1-(2,6-Dichloro-3-fluorophenyl)ethyl]-1H-pyrrolo[2,3-b]pyridin-5-yl}-3,5-dimethyl-1H-pyrazol-1-yl)propane-1,2-diol] | ≥ 7.30 | < 6.00
3 | Cc1c(-c2cnc3[nH]cc([C@H](C)c4c(OC(F)F)ccc(F)c4Cl)c3c2)cnn1[C@@H]1C[C@@H](O)[C@@H](O)C1 [Example 75, (1R,2S,4S)-4-[4-(3-{(1S)-1-[2-Chloro-6-(difluoromethoxy)-3-fluoro-phenyl]ethyl}-1H-pyrrolo[2,3-b]pyridin-5-yl)-5-methyl-1H-pyrazol-1-yl]cyclopentane-1,2-diol] | ≥ 7.30 | 6.00 to 6.70
4 | Cc1c(-c2cnc3[nH]cc([C@H](C)c4c(Cl)ccc(F)c4Cl)c3c2)cnn1[C@H]1CC[C@H](O)CC1 [Example 67, trans-4-(4-{3-[(1S)-1-(2,6-Dichloro-3-fluorophenyl)ethyl]-1H-pyrrolo[2,3-b]pyridin-5-yl}-5-methyl-1H-pyrazol-1-yl)cyclohexanol] | ≥ 7.30 | < 6.00
5 | COc1ccc(F)c(Cl)c1[C@@H](C)c1c[nH]c2ncc(-c3cn(C)nc3C(N)=O)cc12 [Example 39, 4-{3-[(1S)-1-(2-Chloro-3-fluoro-6-methoxyphenyl)ethyl]-1H-pyrrolo[2,3-b]pyridin-5-yl}-1-methyl-1H-pyrazole-3-carboxamide] | 6.70 to 7.30 | < 6.00
6 | COc1ccc(F)c(Cl)c1[C@@H](C)c1c[nH]c2ncc(-c3cnn([C@H]4CC[C@H](C(=O)N(C)C)CC4)c3C)cc12 [Example 14, Trans-4-(4-{3-[(1S)-1-(2-chloro-3-fluoro-6-methoxyphenyl)ethyl]-1H-pyrrolo[2,3-b]pyridin-5-yl}-5-methyl-1H-pyrazol-1-yl)-N,N-dimethylcyclohexanecarboxamide] | ≥ 7.30 | < 6.00
7 | COc1ccc(F)c(Cl)c1[C@@H](C)c1c[nH]c2ncc(-c3cnn([C@H]4CC[C@H](N(C)C)CC4)c3C)cc12 [Example 53, trans-4-(4-{3-[(1S)-1-(2-Chloro-3-fluoro-6-methoxyphenyl)ethyl]-1H-pyrrolo[2,3-b]pyridin-5-yl}-5-methyl-1H-pyrazol-1-yl)-N,N-dimethylcyclohexanamine] | ≥ 7.30 | 6.70 to 7.30
8 | COc1ccc(F)c(Cl)c1[C@@H](C)c1c[nH]c2ncc(-c3cnn([C@H]4CC[C@H](O)CC4)c3C)cc12 [Example 27, trans-4-(4-{3-[(1S)-1-(2-Chloro-3-fluoro-6-methoxyphenyl)ethyl]-1H-pyrrolo[2,3-b]pyridin-5-yl}-5-methyl-1H-pyrazol-1-yl)cyclohexanol] | ≥ 7.30 | < 6.00
9 | COc1ccc(F)c(Cl)c1[C@@H](C)c1c[nH]c2ncc(-c3c(C)nn(CC(C)(C)O)c3C)cc12 [Example 5, 1-(4-{3-[(1S)-1-(2-Chloro-3-fluoro-6-methoxyphenyl)ethyl]-1H-pyrrolo[2,3-b]pyridin-5-yl}-3,5-dimethyl-1H-pyrazol-1-yl)-2-methylpropan-2-ol] | 6.70 to 7.30 | < 6.00
10 | CCc1c(-c2cnc3[nH]cc([C@H](C)c4c(OC)ccc(F)c4Cl)c3c2)cnn1CC(C)(C)O [Example 11, 1-(4-{3-[(1S)-1-(2-Chloro-3-fluoro-6-methoxyphenyl)ethyl]-1H-pyrrolo[2,3-b]pyridin-5-yl}-5-ethyl-1H-pyrazol-1-yl)-2-methylpropan-2-ol] | 6.70 to 7.30 | < 6.00

Other lines, results leading:

Row | pIC50 [1] | pIC50 [2] | Structure (SMILES)
11 | ≥ 7.30 | < 6.00 | C[C@H](c1c(OC(F)F)ccc(F)c1Cl)c1c[nH]c2ncc(-c3cnn([C@H]4CC[C@H](O)CC4)c3Cl)cc12 [Example 82, trans-4-[5-Chloro-4-(3-{(1S)-1-[2-chloro-6-(difluoromethoxy)-3-fluorophenyl]ethyl}-1H-pyrrolo[2,3-b]pyridin-5-yl)-1H-pyrazol-1-yl]cyclohexanol]
12 | ≥ 7.30 |  | CC(=O)N1CCC(n2ncc(-c3cnc4[nH]cc([C@H](C)c5c(OC(F)F)ccc(F)c5Cl)c4c3)c2C)CC1 [Example 97, 1-{4-[4-(3-{(1S)-1-[2-Chloro-6-(difluoromethoxy)-3-fluorophenyl]ethyl}-1H-pyrrolo[2,3-b]pyridin-5-yl)-5-methyl-1H-pyrazol-1-yl]piperidin-1-yl}ethanone]
13 | ≥ 7.30 | 6.00 to 6.70 | [2H]C([2H])([2H])c1c(-c2cnc3[nH]cc([C@H](C)c4c(OC(F)F)ccc(F)c4Cl)c3c2)cnn1[C@H]1CC[C@H](O)CC1 [Example 85, trans-4-[4-(3-{(1S)-1-[2-Chloro-6-(difluoromethoxy)-3-fluorophenyl]ethyl}-1H-pyrrolo[2,3-b]pyridin-5-yl)-5-(^2H3)methyl-1H-pyrazol-1-yl]cyclohexanol]
14 | ≥ 7.30 | < 6.00 | CCc1c(-c2cnc3[nH]cc([C@H](C)c4c(OC(F)F)ccc(F)c4Cl)c3c2)cnn1[C@H]1CC[C@H](O)CC1 [Example 78, trans-4-[4-(3-{(1S)-1-[2-Chloro-6-(difluoromethoxy)-3-fluorophenyl]ethyl}-1H-pyrrolo[2,3-b]pyridin-5-yl)-5-ethyl-1H-pyrazol-1-yl]cyclohexanol]
15 | ≥ 7.30 |  | Cc1c(-c2cnc3[nH]cc([C@H](CF)c4c(OC(F)F)ccc(F)c4Cl)c3c2)cnn1[C@H]1CC[C@H](O)CC1 [Example 124, trans-4-[4-(3-{(1S)-1-[2-chloro-6-(difluoromethoxy)-3-fluorophenyl]-2-fluoroethyl}-1H-pyrrolo[2,3-b]pyridin-5-yl)-5-methyl-1H-pyrazol-1-yl]cyclohexanol]
16 | ≥ 7.30 |  | C[C@H](c1c(OC(F)F)ccc(F)c1Cl)c1c[nH]c2ncc(-c3cnc(N4CCC(O)CC4)n3C)cc12 [Example 125, 1-[5-(3-{(1S)-1-[2-Chloro-6-(difluoromethoxy)-3-fluorophenyl]ethyl}-1H-pyrrolo[2,3-b]pyridin-5-yl)-1-methyl-1H-imidazol-2-yl]piperidin-4-ol]
17 | ≥ 7.30 |  | COc1ccc(F)c(Cl)c1[C@@H](C)c1c[nH]c2ncc(-c3cn([C@H]4CC[C@H](O)CC4)nc3OC)cc12 [Example 99, trans-4-(4-{3-[(1S)-1-(2-chloro-3-fluoro-6-methoxyphenyl)ethyl]-1H-pyrrolo[2,3-b]pyridin-5-yl}-3-methoxy-1H-pyrazol-1-yl)cyclohexanol]
18 | ≥ 7.30 |  | COc1nn([C@H]2CC[C@H](O)CC2)cc1-c1cnc2[nH]cc([C@H](C)c3c(OC(F)F)ccc(F)c3Cl)c2c1 [Example 100, trans-4-[4-(3-{(1S)-1-[2-chloro-6-(difluoromethoxy)-3-fluorophenyl]ethyl}-1H-pyrrolo[2,3-b]pyridin-5-yl)-3-methoxy-1H-pyrazol-1-yl]cyclohexanol]
19 | ≥ 7.30 |  | C[C@H](c1c(OC(F)F)ccc(F)c1Cl)c1c[nH]c2ncc(-c3cnc([C@H]4CC[C@H](O)CC4)n3C)cc12 [Example 126, trans-4-[5-(3-{(1S)-1-[2-Chloro-6-(difluoromethoxy)-3-fluorophenyl]ethyl}-1H-pyrrolo[2,3-b]pyridin-5-yl)-1-methyl-1H-imidazol-2-yl]cyclohexanol]
20 | ≥ 7.30 |  | Cc1c(-c2cnc3[nH]cc([C@H](C)c4c(OC(F)F)ccc(F)c4Cl)c3c2)cnn1C1CCNCC1 [Example 96, 3-{(1S)-1-[2-Chloro-6-(difluoromethoxy)-3-fluorophenyl]ethyl}-5-[5-methyl-1-(piperidin-4-yl)-1H-pyrazol-4-yl]-1H-pyrrolo[2,3-b]pyridine]
21 | 6.00 to 6.70 |  | Cc1c(-c2cnc3[nH]cc([C@@H](CF)c4c(OC(F)F)ccc(F)c4Cl)c3c2)cnn1[C@H]1CC[C@H](O)CC1 [Example 123, trans-4-[4-(3-{(1R)-1-[2-chloro-6-(difluoromethoxy)-3-fluorophenyl]-2-fluoroethyl}-1H-pyrrolo[2,3-b]pyridin-5-yl)-5-methyl-1H-pyrazol-1-yl]cyclohexanol]
22 | ≥ 7.30 |  | COc1ccc(F)c(Cl)c1[C@@H](CF)c1c[nH]c2ncc(-c3cnn([C@H]4CC[C@H](O)CC4)c3C)cc12 [Example 121, trans-4-(4-{3-[(1S)-1-(2-Chloro-3-fluoro-6-methoxyphenyl)-2-fluoroethyl]-1H-pyrrolo[2,3-b]pyridin-5-yl}-5-methyl-1H-pyrazol-1-yl)cyclohexanol]
